Reference: US20250177421A1, “METHOD FOR PREVENTING OR TREATING HEARING LOSS” (MACKAY MEDICAL COLLEGE, priority 2022, published 2025)

What was measured:
[1] = test system: kanamycin/furosemide-injected mice; assay: ABR hearing threshold, kanamycin/furosemide-induced SNHL in mice; assay type: in vivo; conditions: IP6 80 mg/kg or fucoxanthin 60 mg/kg IP for 5 consecutive days
Method: For the kanamycin-induced SNHL in mice, the schematic protocol for the dosing and timing of kanamycin, furosemide, IP6 and/or fucoxanthin was presented in FIG. 1B. Kanamycin (Sigma Aldrich, USA) was dissolved in PBS, and kanamycin (1 mg/g) and furosemide (0.1 mg/g, Sigma Aldrich, USA) were injected as a single dose on the first day. Specifically, furosemide was intraperitoneally injected within 30 min after kanamycin was injected subcutaneously (SC). One hour later, IP6 and/or fucoxanthin was intraperitoneally injected for 5 consecutive days. The ABR of mice was measured to evaluate their hearing threshold. In brief, measurements were performed on the scalps of mice under anesthesia by using subdermal needle electrodes placed at the vertex, below the pinna of the left ear (as a reference measurement), and below the contralateral ear (ground). The sound stimuli included clicks ([…]; 4, 8, and 12 kHz). The devices used for ABR measurement were specifically designed for animal experiments (BIOPAC System, USA). […] The ABR threshold was measured through detection of the presence of V waves. […] One week later, the hearing threshold of all groups of mice was measured using ABR instrument. […]

[2] = test system: kanamycin/furosemide-injected mice; assay: Loss of OHCs in cochlear tissues (immunohistochemical staining), kanamycin/furosemide-induced SNHL in mice; assay type: in vivo; conditions: IP6 80 mg/kg IP for 5 days in kanamycin/furosemide-injected mice
Method: For the kanamycin-induced SNHL in mice, the schematic protocol for the dosing and timing of kanamycin, furosemide, IP6 and/or fucoxanthin was presented in FIG. 1B. Kanamycin (Sigma Aldrich, USA) was dissolved in PBS, and kanamycin (1 mg/g) and furosemide (0.1 mg/g, Sigma Aldrich, USA) were injected as a single dose on the first day. Specifically, furosemide was intraperitoneally injected within 30 min after kanamycin was injected subcutaneously (SC). One hour later, IP6 and/or fucoxanthin was intraperitoneally injected for 5 consecutive days. Experimental mice were anesthetized, and their cochlear tissues were isolated and dissected. For whole-mount dissection, the protocol detailed by Neal et al. was followed^[5]. In brief, the cochlea was decalcified for 1 hour using a decalcification solution purchased from Apex Engineering (Aurora, IL, USA). […] The images at three randomly-selected regions (300 μm length) in the apical, middle, and basal cochlear turns were acquired by using the same apparatus, and the loss of OHCs was manually counted. Average loss of OHCs was then calculated in apex, middle and base regions, respectively^[6]. Fluorescent images were taken with a Leica SP8 confocal fluorescence microscope. […] One week later, the hearing threshold of all groups of mice was measured using ABR instrument. […]

[3] = test system: aging mice; assay: ABR hearing threshold, age-related hearing loss (ARHL) mouse model; assay type: in vivo; conditions: IP6 drink group (2% IP6 in drinking water for 10 months), 12-month-old mice
[4] = test system: 12-month-old C57BL/6J mice; assay: Loss of OHCs and IHCs in cochlear tissues (immunohistochemical staining), ARHL mouse model; assay type: in vivo; conditions: 12-month-old mice
[5] = test system: cisplatin-injected mice; assay: Loss of outer hair cells (OHCs) count in cochlear tissues, cisplatin-induced SNHL in mice; assay type: in vivo
Method: (§1) The used procedures followed the protocol reported by Wu et al.^[3]. Inositol hexaphosphate (IP6) obtained from Sigma (USA) was dissolved in ddH2O, and the doses given to the experimental mice intraperitoneally were 40 mg/kg and 80 mg/kg (100 μL of IP6). […] The mice of the control group received only phosphate-buffered saline (PBS, 100 μL).
Experimental mice were anesthetized, and their cochlear tissues were isolated and dissected. For whole-mount dissection, the protocol detailed by Neal et al. was followed^[5]. In brief, the cochlea was decalcified for 1 hour using a decalcification solution purchased from Apex Engineering (Aurora, IL, USA). The excess temporal bone around the cochlea was trimmed, and the cochlea was bisected along the midmodiolar plane and then submerged in phosphate buffered saline (PBS). A series of cuts through the modiolus separated the half-turns from one another. […]
For the loss of OHCs counts, hair cells (HCs) were counterstained with phalloidin, Myo7A and DAPI stainings. […] The images at three randomly-selected regions (300 μm length) in the apical, middle, and basal cochlear turns were acquired by using the same apparatus, and the loss of OHCs was manually counted. Average loss of OHCs was then calculated in apex, middle and base regions, respectively^[6]. Fluorescent images were taken with a Leica SP8 confocal fluorescence microscope. […]

[6] = test system: cisplatin-injected mice; assay: Auditory brainstem response (ABR) hearing threshold, cisplatin-induced SNHL in mice; assay type: in vivo; conditions: cisplatin-injected mice (3 mg/kg IP, 5 days) with IP6 40 or 80 mg/kg IP; measured one week later
[7] = test system: mouse cochlear tissues; assay: NanoString neuropathology gene expression analysis of cochlear tissues; assay type: in vivo, mice
Method: Total mRNA was extracted from mouse cochlear tissues as per the protocol described in previous studies^[10, 11]. The expression profile of neuropathological genes was analyzed using a NanoString mouse neuropathology panel (NanoString Technologies, Seattle, WA, USA), which includes genes involved in neural cell types and neuropathological processes^[12, 13]. All analyses of genes or pathways scores were performed in accordance with the user manual of the nCounter Advanced Analysis Software and were described in detail in previous studies^[10, 11]. Cold Spring Biotech in Taiwan was responsible for performing the NanoString gene expression analysis and bioinformatics analyses.

[8] = parameters: species or system mice; conditions: mouse, in vivo
Method: as §1

[9] = 2% IP6 through drinking water for 10 months
[10] = IP6 80 mg/kg IP three days per week for 10 months

Compound: O=P(O)(O)O[C@H]1[C@H](OP(=O)(O)O)[C@@H](OP(=O)(O)O)[C@H](OP(=O)(O)O)[C@@H](OP(=O)(O)O)[C@H]1OP(=O)(O)O [IP6, inositol hexaphosphate]
- hearing threshold (ABR) of kanamycin/furosemide-injected mice [1]: significant reduction
- loss of OHCs (Myo7A+) in the apex, middle and base regions of the cochlear tissues [2]: significantly reduced
- hearing function at the frequency of 12 kHz compared with the control group [3]: significantly improved
- loss of IHCs (Myo7A+) in the base regions [4, 9]: moderately mitigated
- loss of OHCs (Myo7A+) in the apex, middle, and base regions [4, 9]: moderately mitigated
- loss of IHCs (Myo7A+) in the base regions [4, 10]: moderately mitigated
- loss of OHCs (Myo7A+) in the apex, middle, and base regions [4, 10]: moderately mitigated
- loss of OHCs (Myo7A+) in the apex, middle, and base regions ([5]; IP6 80 mg/kg IP 2 h before cisplatin 3 mg/kg IP, once per day for 5 days, compared with cisplatin-injected mice without IP6): significantly reduced
- hearing threshold (ABR) after IP6 treatment [6]: 20 to 30 db
- carbohydrate metabolism: mRNA levels of Akt3, Slc1a1, and Slc1a2 ([7]; IP6 treatment): upregulated
- lipid metabolism: mRNA levels of Cers6, Dgkb, Dgke, B4galt6, and Pla2g4c ([7]; IP6 treatment, P<0.05): upregulated
- microglia gene score: mRNA levels of Amigo1, Atp6v1a, and Ap3m2 ([7]; after IP6 treatment (80 mg/kg), kanamycin/furosemide-injected mice, P<0.05): significantly upregulated
- endothelial cell gene score: mRNA levels of Nrxn1 and Prkcb ([7]; after IP6 treatment (80 mg/kg), Nrxn1 P<0.01, Prkcb P<0.05): significantly upregulated
- neuron score genes (Plcb4, Cacna1a, Calb1, Hen1, Cur1, Arhgap44, Gria4, Scn1a, Grik2, Cntnap1, Shank2, Lrrc4, Rab3a, Nrxn1, Adora1, Pak1, Frmpd4, Scn2a1, Dagla, Atcay) ([7]; after IP6 treatment (80 mg/kg), P<0.01): significantly upregulated
- myelination gene score: mRNA levels of Cntnap1, Scn2a1, and Amigo1 ([7]; after IP6 treatment, Cntnap1 P<0.01, Scn2a1 and Amigo1 P<0.05): significantly upregulated
- vesicle trafficking gene scores: mRNA levels of Cacna1a, Calb1, Gabrb2, Syt4, Cnr1, Gria4, Grik2, Rims1, Cacnb4, Stx1b, Shank2, Fgf14, Syt13, Rab3a, Ncam1, Nrxn1, Adora1, Nova1, Gabra1, Rit2 ([7]; after IP6 treatment, P<0.01): significantly upregulated
- transcriptional patterns of astrocytes, endothelial cells, microglia, and neurons ([7]; kanamycin/furosemide-injected mice, 80 mg/kg IP6): reversed
- serum alanine aminotransferase (ALT) [8]: no difference
- serum aspartate aminotransferase (AST) [8]: no difference
- serum total bilirubin [8]: no difference

Compound: fucoxanthin
- hearing threshold (ABR) of kanamycin/furosemide-injected mice [1]: significant reduction

Compound: N.N.[Cl][Pt][Cl] [cisplatin, reference compound]
- loss of OHCs (Myo7A+) in the apex, middle, and base regions ([5]; cisplatin 3 mg/kg IP once per day for 5 days, compared with the control group): significant loss
- serum alanine aminotransferase (ALT) [8]: no difference
- serum aspartate aminotransferase (AST) [8]: no difference
- serum total bilirubin [8]: no difference
